# Laboratory results: patent US12090147B2, “Combination therapy with 2-(4-chlorophenyl)-N-((2-(2,6-dioxopiperidin-3-yl)-1-oxoisoindolin-5-yl)methyl)-2,2-difluoroacetamide” (Celgene Corporation, priority 2019, dated 2024)
# Legend:
# [1] = tested on: ML-2; assay: Cell viability (CELL TITER-GLO), Compound 1 IC50 / dose response; format: cell-based; conditions: Homo sapiens; ML-2 (monocytic, FAB M4)
# Description: For CELL TITER-GLO® (CTG; Promega) and Incucyte assays, cells were seeded at 0.1 million per mL, 50 μL per well of Corning black 384-well plate and allowed set overnight. The next day, test compounds were dispensed using a Tecan D300e digital dispenser according to manufacturer's instruction.
# Human AML cell lines, HL-60 (CCL-240), KG-1 (CCL-246), ML-2 (ACC-15), MOLM-13 (ACC-554), MV-4-11 (CRL-9591), NOMO-1 (ACC-542), TF-1 (CRL-2003), THP-1 (TIB-202), and U937 (CRL-1593) were obtained from American Type Culture Collection (ATCC; Manassas, VA) or Deutsche Sammlung von Mikroorganismen and Zellkulturen (DSMZ, Germany) cell banks. […]
# AML cell lines and primary AML were treated in duplicate or triplicates with DMSO or test compounds in 384-well plates for 3 days. Cell viability was determined by CELL TITER-GLO® (CTG; Promega) assay kit according to manufacturer's instructions. Apoptosis was monitored using Caspase 3/7 Green reagent (Essen Biosciences Cat No. 4440). Caspase-3/7 activation levels were quantified using the IncuCyte™ ZOOM basic analyzer.
# (§1) Cell proliferation (CTG) and caspase 3/7 activation (IncuCyte) were analyzed using GraphPad Prism. Electrochemiluminescence data was analyzed using MSD Discovery Workbench platform.
# [2] = tested on: KG-1; assay: Cytokine induction, electrochemiluminescence assay of culture supernatant; format: cell-based, human
# Description: (§2) For cytokine assays on AML cell lines, cells were seeded at 1 million per mL, 3 mL per well of 6-well plates and allowed set overnight. The next day, cells were treated with 3 μL 1000× working stock of compounds of interest.
# (§3) Human AML cell lines, HL-60 (CCL-240), KG-1 (CCL-246), ML-2 (ACC-15), MOLM-13 (ACC-554), MV-4-11 (CRL-9591), NOMO-1 (ACC-542), TF-1 (CRL-2003), THP-1 (TIB-202), and U937 (CRL-1593) were obtained from American Type Culture Collection (ATCC; Manassas, VA) or Deutsche Sammlung von Mikroorganismen and Zellkulturen (DSMZ, Germany) cell banks. Acute myeloid leukemia cell lines were maintained in RPMI-1640 (ATCC Cat No. 30-2001) containing 20% fetal bovine serum (FBS) (Corning Cat No. 35-010-CV) and maintained in humidified incubators at 5% carbon dioxide.
# (§4) IL-1α (Meso Scale Disgnostics, Cat No. K151RBD), IL-1β (Meso Scale Disgnostics, Cat No. K151QPD), IL-1RA (Meso Scale Disgnostics, Cat No. K151WTD), IL-18 (Meso Scale Disgnostics, Cat No. K151VJK), TNFa (Meso Scale Disgnostics, Cat No. K151QWD), VEGF Meso Scale Disgnostics, Cat No. K151RHD) levels were measured by (Meso Scale Disgnostics assay kits following manufacturer's instructions. Measurements were made on a MESO™ SECTOR S 600 plate reader (Meso Scale Disgnostics).
# as §1
# (§5) The level of intracellular pro IL-1β and released IL-1β in eight AML cell lines and normal PBMC treated with a titration of Compound 1 over a 48 hour period was assessed. (see FIGS. 1A-1C, Table 2). Supernatant IL-1βb level was induced over 5 fold in 6 out of 8 AML cell lines and normal PBMC upon Compound 1 treatment compared to DMSO (FIGS. 1A, 1B, and 1C, Table 2).
# [3] = tested on: ML-2; assay: as above; format: cell-based, human; conditions: ML-2
# Description: as §2, §3, §4, §1, §5
# [4] = tested on: MV4-11; assay: as above; format: cell-based, human; conditions: MV4-11
# Description: as §2, §3, §4, §1, §5
# [5] = tested on: NOMO-1; assay: as above; format: cell-based, human
# Description: as §2, §3, §4, §1, §5
# [6] = tested on: ML-2, MV4-11 and MOLM13 cell lines; assay: VEGF and TNFa levels, electrochemiluminescence assay; format: cell-based, human; conditions: compared to other mechanistic agents
# Description: as §4
# To further explore the mechanisms underlying IL-1β induction by Compound 1, and compounds with different, but related mechanisms to Compound 1 were tested in three AML cell lines, ML-2, MV4-11 and MOLM-13 (FIG. 4 and FIG. 5). Compound 1 degrades GSPT1 through cereblon mediated protein degradation, which leads to global translation inhibition, activation of ISR and subsequently apoptosis. […] To assess if GSPT1 degradation leads to pan-cytokine induction or specific to IL-1β, the compound effect was compared on the levels of two other known hypotension inducing cytokines, TNFa and VEGF (FIG. 7).
# [7] = Hygroscopicity; format: physicochemical
# [8] = tested on: ML-2; assay: Cytokine induction, electrochemiluminescence assay of culture supernatant; format: cell-based, human; conditions: compounds at 1 μM, 72 hours
smiles,measurement,setting,value
"O=C1CCC(N2Cc3cc(CNC(=O)C(F)(F)c4ccc(Cl)cc4)ccc3C2=O)C(=O)N1 (centres unmarked) [Compound 1, 2-(4-chlorophenyl)-N-((2-(2,6-dioxopiperidin-3-yl)-1-oxoisoindolin-5-yl)methyl)-2,2-difluoroacetamide]",IC50,[1],15.1 nM
same,IL-1β induction,[2],27.17
same,IL-18 induction,[2],0.38
same,IL-1β induction,[3],3.48
same,IL-18 induction,[3],0.00
same,"Intracellular pro- and secreted IL-1β induction, time of onset",[3],not observed until 48 hours post-treatment
same,Secreted IL-1β in cell culture supernatant,"[3]; 24, 48 and 72 hours, doses conferring similar caspase3/7 activation and viability loss",conferred induction
same,IL-1β induction,[4],16.46
same,IL-18 induction,[4],0.00
same,IL-1β induction,[5],1.34
same,IL-18 induction,[5],0.24
same,VEGF and TNFa levels,[6],did not induce more VEGF nor TNFa compared to other mechanistic agents
same,Hygroscopicity,[7],Not hygroscopic
same,"Secreted IL-1β levels, panel of mechanistic compounds",[8],produced markedly more secreted IL-1β compared to all other compounds tested
